# Laboratory results: patent publication US20090099102A1, “Ginkgolides in the Treatment and Prevention of Ovarian Cancer” (priority 2005, published 2009)
# Entries after “also recorded” stand apart in the source; their conditions may differ.
# Experiments:
# smooth muscle cell = settings: related to G1 to S phase blockage; cited from earlier work
# RMUG-L cells [1] = assay: Cell cycle analysis, RMUG-L; format: cell-based, human; settings: 48 h
# Protocol: (§1) For the cell cycle analysis, ovarian cells were plated in 75 cm^2 flasks and treated with 100 μM of ginkgolide A and B; the control was treated with an equal amount of DMSO. After 24 and 48 hours, cells were harvested by trypsin digestion and followed by PBS washing and spun for 5 min at room temperature at 12,000 rpm. Cells were fixed with 70% ethanol (in PBS buffer) by suspending the cell pellet and incubated at room temperature for 5 minutes or at −20° C. for two days. The fixed cells were washed once with PBS and then treated with RNase A (50 ug/ml) at 37° C. for 30-60 min. After a single washing with PBS to remove RNase A, propidium iodide (25 μg/ml in PBS buffer) was added. Cells were subjected to analysis using a FACS Calibur Flow Cytometer (Becton Dickson, San Jose, Calif.). Each experiment was repeated at least three times and the cell cycle profiles and data were analyzed by ModFit LT software (Verity Software House, Inc., Topsham, Me.).
# HOSE-E6E7 cells [2] = assay: Cell cycle analysis, HOSE-E6E7; format: cell-based, human; settings: 100 μM, 24 h
# Protocol: as §1
# HOSE-E6E7 cells [3] = assay: Cell proliferation (MTT) assay, HOSE-E6E7 cells; format: cell-based, human; settings: 10, 50 and 100 μM (extract: equivalent of ginkgolides), 72 h
# Protocol: Immortalized normal human ovary epithelial cell (HOSEE6E7) and a serous type ovarian cancer cell lines ([…]) previously established in our laboratory (Tsao, et al., Exp. Cell Res. 218:499-507 (1995); Kim, et al., Jama 287:1671-1679 (2002)) were used in this study. Two mucinous ovarian cancer cell lines (RMUG-S and RMUG-L) were purchased from The Japanese Collection of Research Bioresource (Tokyo, Japan). RMUG-L cells were cultured in MCDB105/M199 medium as above, and RMUG-S cells were cultured in F-12 medium with 10% Fetal Bovine Serum and 1% antibiotic as above. Cells were maintained at 37° C. under 5% CO2 and 95% air in a high humidity chamber. Monolayer cells at 60-80% confluence were enzymatically removed using trypsin/EDTA and plated in 96 well flat-bottomed plates at concentration of 5×10^3 per well for HOSE-E6E7 cells, 1×10^3 per well for OVCA429 and RMUG-L, respectively. Treatments were added 24 hours after plating. […]
# Methods for the cell proliferation and viability assays were adopted from MTT (Mosmann, J. Immunol. Methods 65:55-63 (1983), XTT (Scudiero et al., Cancer Res. 48:4827-4833, (1988)) and MTS (Cory, et al., Cancer Commun. 3: 207-212 (1991)), which developed as WST-1 (Roche Applied Science, Germany). Briefly, the tetrazolium salts are cleaved to formazan by cellular enzymes. An expansion in the number of viable cells results in an increase in the overall activity of mitochondrial dehydrogenases in the sample. This augmentation in enzyme activity leads to an increase in the amount of formazan dye formed, which directly correlates with the number of metabolically active cells in the culture. […] One hour after the addition of the solubilization solution, the contents of the wells were mixed and read by the 96-well plate scanning spectrophotometer (μQuant) and quantitative software (KC-junior, Bio-Tek Instruments, Inc.) at an absorbance of 630 nm for quantitative analysis. […] The cell proliferation rate was expressed as a percentage of the control, which had been treated with an equivalent volume of DMSO (as 100%). […]
# RMUG-L cells [4] = assay: Cell proliferation (MTT) assay, mucinous cancer cells RMUG-L; format: cell-based, human; settings: 10, 50 and 100 μM (extract: equivalent of ginkgolides), 72 h
# Protocol: (§2) Immortalized normal human ovary epithelial cell (HOSEE6E7) and a serous type ovarian cancer cell lines (OVCA433) previously established in our laboratory (Tsao, et al., Exp. Cell Res. 218:499-507 (1995); Kim, et al., Jama 287:1671-1679 (2002)) were used in this study. Two mucinous ovarian cancer cell lines (RMUG-S and RMUG-L) were purchased from The Japanese Collection of Research Bioresource (Tokyo, Japan). RMUG-L cells were cultured in MCDB105/M199 medium as above, and RMUG-S cells were cultured in F-12 medium with 10% Fetal Bovine Serum and 1% antibiotic as above. Cells were maintained at 37° C. under 5% CO2 and 95% air in a high humidity chamber. Monolayer cells at 60-80% confluence were enzymatically removed using trypsin/EDTA and plated in 96 well flat-bottomed plates at concentration of 5×10^3 per well for HOSE-E6E7 cells, 1×10^3 per well for OVCA429 and RMUG-L, respectively. Treatments were added 24 hours after plating. Ten mM stock solutions of Ginkgo biloba, quercetin, kaempferol, ginkgolide A, and ginkgolide B, were prepared in DMSO and cells were treated with 10, 50 and 100 μM concentrations of each component. Concentration of standard Ginkgo biloba treatment was calibrated according to the fact that, the standard Ginkgo biloba mixture contains about 4-6% of total active terpene lactons, and the estimated average of the molecular weight of the mixture is about 300. An equal volume of DMSO (less than <1% concentration) was used as control treatment.
# (§3) Methods for the cell proliferation and viability assays were adopted from MTT (Mosmann, J. Immunol. Methods 65:55-63 (1983), XTT (Scudiero et al., Cancer Res. 48:4827-4833, (1988)) and MTS (Cory, et al., Cancer Commun. 3: 207-212 (1991)), which developed as WST-1 (Roche Applied Science, Germany). Briefly, the tetrazolium salts are cleaved to formazan by cellular enzymes. An expansion in the number of viable cells results in an increase in the overall activity of mitochondrial dehydrogenases in the sample. This augmentation in enzyme activity leads to an increase in the amount of formazan dye formed, which directly correlates with the number of metabolically active cells in the culture. After 72 hours of treatment, 15 μl of the MTT dye solution was added to each well and the plates were incubated at 37° C. for 4 hours in a humidified chamber. After incubation, 100 μl of the Solubilization/Stop solution was added to each well. One hour after the addition of the solubilization solution, the contents of the wells were mixed and read by the 96-well plate scanning spectrophotometer (μQuant) and quantitative software (KC-junior, Bio-Tek Instruments, Inc.) at an absorbance of 630 nm for quantitative analysis. Data was collected from at least 3 separate experiments, and at least 8 repeats were performed for each individual treatment. The cell proliferation rate was expressed as a percentage of the control, which had been treated with an equivalent volume of DMSO (as 100%).
# Logistic regression analysis was used to calculate the exposure odds ratio to estimate the relative risk (RR) for ovarian cancer associated with the use of any or a particular type of herbal remedy. Adjustment variables included age, study center, oral contraceptive (OC) use, parity, and Jewish ethnic background. […]
# RMUG-S cells = assay: Cell cycle analysis, RMUG-S; format: cell-based, human; settings: after treatment
# Protocol: as §1
# OVCA429 cells [5] = assay: Cell proliferation (MTT) assay, serous cancer cells OVCA429; format: cell-based, human; settings: for cell proliferation compared to the control treatments: p<0.0001; for inhibitory pattern in ovarian cancer cells (discussion): cell line not given
# Protocol: as §2, §3
# Logistic regression analysis was used to calculate the exposure odds ratio to estimate the relative risk (RR) for ovarian cancer associated with the use of any or a particular type of herbal remedy. Adjustment variables included age, study center, oral contraceptive (OC) use, parity, and Jewish ethnic background. Additionally, we adjusted individually for categories of consumption of vitamin A, carotene, tomatoes and tomato sauce and juice, and raw carrots based upon previous work showing the importance of these foods and vitamins on ovarian cancer risk in our data (Cramer, et al., Int. J. Cancer 94:128-134 (2001)). For the data from the cell proliferation assay, linear regression models were applied to analyze mean OD values from the MTT assays across the different concentration treatments, adjusted for individual experiments. We used a partial F test to determine whether mean OD levels varied across the four concentrations (control, 10, 50, 100 μM). […]
# [6] = 10 young healthy volunteers; single oral dose of 80 mg Ginkgo biloba (EGb 761 formula); cited from earlier work
# OVCA429 cells [7] = assay: Cell cycle analysis (propidium iodide flow cytometry), OVCA429; format: cell-based, human; settings: for S-phase DNA contents / G0/G1 phase DNA: OVCA429, 100 μM; for cell cycle effect: serous type cancer cells
# Protocol: as §1
# [8] = 48 h, control 43% (ginkgolide B), 36.5% (ginkgolide A)
# [9] = 48 h, control 47.9% (ginkgolide B), 50.7% (ginkgolide A)
SMILES,inhibition of smooth muscle cell proliferation (smooth muscle cell),S-phase DNA (RMUG-L cells [1]; control 28.7%),G0/G1 phase DNA (RMUG-L cells [1]; control 57%),"effect on DNA content of G0/G1, S and G2/M phases (HOSE-E6E7 cells [2])",effect on cell proliferation (words) (HOSE-E6E7 cells [3]),effect on cell proliferation (words) (RMUG-L cells [4]),"changes in G0/G1, S-phase and M-phase DNA distribution (RMUG-S cells)","cell proliferation compared to the control treatments (OVCA429 cells [5]; OVCA429, 10, 50 and 100 μM, 72 h)",inhibitory pattern in ovarian cancer cells (discussion) (OVCA429 cells [5]),average concentration measured [6],"S-phase DNA contents (OVCA429 cells [7]; 24 h, control 43%)","G0/G1 phase DNA (OVCA429 cells [7]; 24 h, control 47.9%)",S-phase DNA contents (OVCA429 cells [7]; [8]),G0/G1 phase DNA (OVCA429 cells [7]; [9]),cell cycle effect (OVCA429 cells [7]),effect on cell proliferation (words) (RMUG-L cells [4]; listed as Ginkgolide A),"cell proliferation compared to the control treatments (OVCA429 cells [5]; OVCA429, 50 and 100 μM, 72 h)","effect on cell proliferation, exception to 'little effect' (OVCA429 cells [5]; OVCA429, 50 and 100 μM)","effect on cell proliferation (words) (OVCA429 cells [5]; OVCA429, 10, 50 and 100 μM (extract: equivalent of ginkgolides), 72 h)"
CC1C(=O)OC2C(O)C34C5CC(C(C)(C)C)C36C(OC(=O)C6O)OC4(C(=O)O5)C12O (stereo not shown) [ginkgolide B],inhibit smooth muscle cell proliferation in a concentration dependent manner,40.9%,44%,neither ginkgolide A nor ginkgolide B (100 μM) showed a significant effect,little effect,little effect; also recorded: no effect,no observed changes,about 60%,significant inhibitory pattern,4 ng/mL,35.8%,51.5%,24%,65.1%,cell cycle blockage at G0/G1 to S phase checking point,,,,
C[C@@H]1C(=O)O[C@H]2C[C@@]34[C@H]5C[C@@H](C(C)(C)C)[C@]36[C@@H](OC(=O)[C@@H]6O)O[C@@]4(C(=O)O5)[C@]21O [ginkgolide A],,,,neither ginkgolide A nor ginkgolide B (100 μM) showed a significant effect,little effect,no effect,,,significant inhibitory pattern,15 ng/mL,,,10.3%,86.1%,cell cycle blockage at G0/G1 to S phase checking point,little effect,about 60%,,
"O=c1c(O)c(-c2ccc(O)c(O)c2)oc2cc(O)cc(O)c12 [quercetin, reference compound]",,,,,little effect,little effect,,,significant inhibitory pattern,,,,,,,,,OVCA429 with 50 and 100 μM quercetin,
"O=c1c(O)c(-c2ccc(O)cc2)oc2cc(O)cc(O)c12 [kaempferol, reference compound]",,,,,,little effect,,,,,,,,,,,,,little effect
